Experimental findings from ChEMBL document CHEMBL4392875, “Rearranged Clerodane Diterpenoids from the Stems of Tinospora baenzigeri” (2019) are described below.

This test relates to HepG2. Put plainly: Hepatoprotective activity in human HepG2 cells assessed as inhibition of APAP-induced cell damage at 10 uM by MTT assay relative to control. It counts as functional. For orientation: Formazan colour is commonly taken as a measure of viable cells.
As to `C[C@@]12C[C@H](C3=CC(=O)O[C@@H]3O)OC(=O)C1=CC[C@]1(C)[C@H]2C[C@H]2COC(=O)[C@]21O`, the inhibition at 10 µM was 4.9%.
Turning to `COC(=O)[C@H]1O[C@H]2C[C@]1(C)C(CCCO[C@@H]1O[C@H](CO)[C@@H](O)[C@H](O)[C@H]1O)[C@]1(C)C[C@@H](c3ccoc3)OC(=O)[C@H]21` (stereo partly specified), the inhibition at 10 µM is -24.9%.
For `C[C@@H](O)/C=C/C1[C@]2(C)CO[C@@]1(C)C[C@@H](O)C2` (stereo partly specified), the inhibition at 10 µM amounted to 19.2%.
Take `C[C@@]12C[C@@H](c3ccoc3)OC(=O)C1=CC[C@]1(C)[C@H]2C[C@H]2COC(=O)[C@]21OC1O[C@H](CO)[C@@H](O)[C@H](O)[C@H]1O` (stereo partly specified): the inhibition at 10 µM was found to be 3.8%.
As for `C[C@@]12C[C@@H](c3ccoc3)OC(=O)C1=CC[C@]1(C)[C@H]2C[C@H]2COC(=O)[C@]21O`, the figure is 6.4%; as for `C[C@@]12C[C@H](c3ccoc3)OC(=O)C1=CC[C@]1(C)[C@H]2C[C@H]2COC(=O)[C@]21O`, 6.6%; as for `COc1cc([C@@H]2OC[C@@H]3C(=O)OC[C@@H]32)cc(OC)c1O`, 17%.
As to `COC(=O)c1cc(OC)c2c(c1-c1c(CO)cc(OC)c3c1OCO3)OCO2` [BICYCLOL], the inhibition at 10 µM was found to be 15.7%.
Turning to `COc1cc(C[C@H]2CO[C@H](c3ccc(O)c(OC)c3)[C@H]2CO)ccc1O` [LARICIRESINOL], the inhibition at 10 µM is -4.3%.
On to `O=C(/C=C/c1ccc(O)cc1)NCCc1ccc(O)cc1` [N-P-COUMAROYL TYRAMINE], for which the inhibition at 10 µM was 39%.
To `COc1cc(/C=C/C(=O)NCCc2ccc(O)cc2)ccc1O` [N-TRANS-FERULOYL TYRAMINE] belongs 3.5%.

Usually inhibition stands for the drop in the measured response relative to a control, in per cent.
